# “And” between values parts separate entries of the source, which are not always exact repeats. Equal entries are not always repeated. Where two headings read alike, the source gives them in different places.
# Tests used:
# SK-GT-4 EAC cells = experiment: MTT proliferation assay, SK-GT-4 cells; assay type: cell-based; settings: read-out: Antiproliferative activity IC50, SK-GT-4
# Protocol: (§1) The FLO-1, SK-GT-4, and THP-1 cell lines were a gift from Dr. Shrikant Anant’s laboratory. Cells were grown in 10% fetal bovine serum (Fisher Scientific#FB12999102, Pittsburgh, PA, USA) and 1% antibiotic/antimycotic agent (Corning, Tewksbury, MA, USA) in RPMI 1640 media mixed with […] HEPES, L-glutamine (Corning, MA, USA). The cell lines were grown in a 5% CO2 incubator at 37 °C and used below 15 passages for the experiments.
# (§2) The proliferation assay used a 3-(4,5-dimethylthiazol-2-yl)-2,5-diphenyltetrazolium bromide (MTT) assay. Briefly, 5000 FLO-1 and SK-GT-4 cells were counted and seeded in each well in 96-well plates. Post 24 h of incubation, EAC cells were treated with multiple concentrations (0–10 μM) of niclosamide (Cayman chemical#10649, Ann Arbor, MI, USA) and its analogs. At respective time points, 10 μL of stock MTT reagent (Millipore Sigma, Bedford, MA, USA) (3 mg/mL) was added to each well and incubated for 1–2 h under the dark at 37 °C. After incubation, the purple formazan crystals were dissolved in equal volumes of DMSO, and the absorbance of the resulting clear solutions was recorded at 570 nm using a microplate reader. A CCK-8 (Abcam, Cat no. ab228554, Burlingame, CA, USA) assay was used for the THP-1 cells. Briefly, 5000 cells were plated in every well of a 96-well plate. After 24 h of plating, THP-1 cells were treated with niclosamide and compound 3a. After the respective time point, an equal amount of CCK-8 reagent was pipetted to the wells and incubated for one hour in an incubator, and finally, the absorbance was recorded at 450 nm. The percent change in the proliferation was calculated by comparing the cell viability of the treated groups to the untreated control cells.
# FLO-1 EAC cells = experiment: MTT proliferation assay, FLO-1 cells; assay type: cell-based; settings: read-out: Antiproliferative activity IC50, FLO-1
# Protocol: as §1, §2
# [1] = test system: M. mycetomatis SO1 isolate; design: method as in PMID 34209118; settings: read-out: IC50 against the Somalian SO1 isolate; cited from earlier work
# [2] = test system: M. mycetomatis MM55 strain; experiment: In vitro susceptibility testing (MTS), MM55 strain; assay type: cell-based, Madurella mycetomatis; settings: for IC50: read-out: Antifungal activity IC50; for IC90: read-out: Antifungal activity IC90
# Protocol: (§3) The antifungal activity of the compounds was tested against a geographically and genetically diverse set of M. mycetomatis isolates. These included the MM55 strain from Sudan, strains I1, I3, and […] from India, strain P1 from Mali, strain SO1 from Somalia, strain Peru72012 from Peru, and strain CBS247.48 whose country of origin was unknown. All isolates were originally obtained from patients and identified and maintained in the Erasmus Medical Centre, Rotterdam, The Netherlands. In vitro susceptibility testing was performed as reported previously. The only difference was that tetrazolium compound 3-(4,5-dimethylthiazol-2-yl)-5-(3-carboxymethoxyphenyl)-2-(4-sulfophenyl)-2H-tetrazolium salt (MTS) was used as a viability dye in endpoint reading instead of 2,3-bis-(2-methoxy-4-nitro-5-sulfophenyl)-2H-tetrazolium-5-carboxanilide salt (XTT).
# M. mycetomatis strains = experiment: In vitro susceptibility testing (MIC), panel of eight strains; assay type: cell-based, Madurella mycetomatis; settings: for MIC50: concentration at which 50% of the eight isolates were completely inhibited
# Protocol: as §3
# [3] = test system: Galleria mellonella larvae; experiment: Toxicity in healthy Galleria mellonella larvae; assay type: in vivo; settings: 20 µM, 10 days
# Protocol: (§4) In vivo efficacy was determined in larvae of the greater wax moth Galleria mellonella. Since G. mellonella is an invertebrate, it is not subject to directive 2010/63/EU of the European law on animal testing. Larvae were housed in the dark in Petri dishes with Whatman paper. To determine the toxicity in G. mellonella larvae, test compounds were injected on three consecutive days at 24 h intervals in the last pro-leg of healthy larvae followed by monitoring of the survival for ten days. If no significant difference between the control and treated larvae was observed, the compound was considered nontoxic. Larvae were further used in infection studies to determine the in vivo activity of test compounds against M. mycetomatis according to our previously published protocol.
# [4] = test system: M. mycetomatis MM55 strain; experiment: In vivo activity in M. mycetomatis-infected G. mellonella larvae; design: species or system Galleria mellonella; d10 AUC / d10 ΔAUC: unit not given here; settings: 20 µM; for d10 AUC: area under the survival curve; for d10 Survival / d10 Survival Corrected with Control: day 10; for d10 ΔAUC: versus control
# Protocol: as §4
# Kinetic solubility = assay type: physicochemical; settings: aqueous buffer
# Protocol: Kinetic solubility was tested using 10 mM stock solutions of test compounds in DMSO followed by dilution with an aqueous buffer to a final concentration of 250 µM and vortexed at 900 rpm for 24 h. Then, the samples were filtered and analyzed by UHPLC (Shimadzu Nexera X2, Milton Keynes, UK).
# CHI logD = assay type: physicochemical; settings: reversed-phase UHPLC
# Protocol: CHI (chromatographic hydrophobicity index) logD was determined according to previously published methods. Test compounds were prepared as 0.5 mM solutions in 50:50 acetonitrile/water and analyzed by reversed-phase UHPLC (wavelength 254 nm). By plotting the retention time of a set of reference compounds against known CHI values, the CHI value of test compounds was calculated according to their retention time, and this was then further converted to CHI logD.
# Microsomal clearance = assay type: in vitro ADME; settings: for half-life at 0.5 µM: female, CD1, pH 7.4, mouse liver microsomes, read-out: Microsomal T ½; for Microsomal Clearance: mouse liver microsomes, 0.5 µM
# Protocol: Liver microsomes were applied to study the microsomal clearance of test compounds. The test compound (0.5 µM) was incubated with female CD1 mouse liver microsomes (0.5 mg/mL, 50 mM potassium phosphate buffer, pH 7.4), and the reaction started with the addition of excess NADPH (8 mg/mL, 50 mM potassium phosphate buffer, and pH 7.4). Immediately, at time 0, then at 3, 6, 9, 15, and 30 min, an aliquot of the incubation mixture was removed and mixed with acetonitrile to stop the reaction. An internal standard (IS) was added to all samples, the samples were centrifuged to sediment precipitated protein, and the plates were then sealed prior to UPLC-MSMS analysis (Xevo TQ-S Micro, Waters^TM, Milford, MA, USA). An exponential decay fit was created from the response ratio (compound peak area/IS peak area) and incubation time, and subsequently, Clint (mL/min/mg protein) was calculated by multiplying the rate constant (k) of the exponential decay curve and incubation conditions (incubation volume/mg protein added).
# [5] = HepG2 hepatotoxicity, resazurin assay; assay type: cell-based; settings: human, HepG2 hepatoma cells, two independent experiments
# Protocol: (§5) HepG2 hepatoma cells were used for hepatotoxicity studies. Cells were provided by ECACC with a certificate of analysis confirming STR profiling and were mycoplasma tested every time new stabilates were made. Cells were screened utilizing a resazurin-based fluorescence assay (λex = 540 nm, λem = 590 nm) in a 384-well plate format. HepG2 cells (1 × 10^5 cells/mL) were incubated with the compound in a 10-point, 1 in 3 dilution series from a top concentration of 100 µM, for 72 h. After the 72 h incubation period, resazurin (0.27 mM in a cell culture medium) was added and the plates were incubated for a further 3–4 h before the fluorescent signal was measured using PHERAstar (BMG Labtech, Ortenberg, Germany). IC50 values were calculated from two independent experiments.
# HepG2 hepatoma cells = experiment: HepG2 hepatotoxicity, resazurin assay; assay type: cell-based; settings: 72 h, two independent experiments
# Protocol: as §5
# [6] = Madurella mycetomatis, MM55STRAIN
# [7] = Madurella mycetomatis, CBS247, strain CBS247.48, read-out: MIC, CBS247.48
# [8] = Madurella mycetomatis, strain I1, read-out: MIC, I1
# [9] = Madurella mycetomatis, strain I3, read-out: MIC, I3
# [10] = Madurella mycetomatis, strain I11, read-out: MIC, I11
# [11] = Madurella mycetomatis, strain MM55, read-out: MIC, MM55
# [12] = Madurella mycetomatis, strain P1, read-out: MIC, P1
# [13] = Madurella mycetomatis, strain Peru72012, read-out: MIC, Peru72012
# [14] = Madurella mycetomatis, strain SO1, read-out: MIC, SO1
"IC50 (SK-GT-4 EAC cells; SKGT4, 72 h) [µM]","IC50 [2, 6] [µM]","IC90 [2, 6] [µM]",SMILES,"IC50 (FLO-1 EAC cells; FLO-1, 72 h) [µM]",MIC (M. mycetomatis strains; [7]) [µM],MIC (M. mycetomatis strains; [8]) [µM],MIC (M. mycetomatis strains; [9]) [µM],MIC (M. mycetomatis strains; [10]) [µM],MIC (M. mycetomatis strains; [11]) [µM],MIC (M. mycetomatis strains; [12]) [µM],MIC (M. mycetomatis strains; [13]) [µM],MIC (M. mycetomatis strains; [14]) [µM],MIC50 (M. mycetomatis strains; Madurella mycetomatis) [µM],d10 AUC [4],d10 Survival Corrected with Control ([4]; infected larvae) [%],d10 ΔAUC [4],other results
–,–,–,"N.N.[Cl][Pt][Cl] [Cisplatin, reference compound]",–,–,–,–,–,–,–,–,–,–,–,–,–,IC50 (SK-GT-4 EAC cells; 72 h): 2.28 ± 0.14 µM; IC50 (FLO-1 EAC cells; 72 h): 1.7 ± 1.48 µM
–,–,–,O=C(Nc1cccc(C(F)(F)F)c1)c1cc(Cl)ccc1O [MMV665807],–,–,–,–,–,–,–,–,–,–,–,–,–,IC50 [1]: 9.93 µM
7.1 ± 0.75,6.6 ± 2,8.4 ± 1.1,CCc1ccc(NC(=O)c2cc(Cl)ccc2O)cc1 [Compound 2d],6.13 ± 0.96,–,–,–,–,–,–,–,–,–,–,–,–,–
–,–,–,"O=C(Nc1ccc(SC(F)(F)F)cc1)c1cc(Cl)ccc1O [Compound 2b, 5-Chloro-2-hydroxy-N-(4-trifluoromethylsulfanylphenyl)benzamide]",–,0.5,0.5,0.5,0.5,0.5,0.3,0.3,0.5,0.5,451.7,−3.33,120,IC50 (SK-GT-4 EAC cells; 72 h): 2.02 ± 0.14 µM; IC50 (FLO-1 EAC cells; 72 h): 2.2 ± 0.36 µM; IC50 [2]: 0.2 ± 0.1 µM; IC90 [2]: 0.5 ± 0.6 µM; Toxicity to non-infected G. mellonella larvae [3]: not toxic; Effect on survival between days three and six ([4]; infected larvae): considerable temporary effect; d10 Survival ([4]; infected larvae): no increased survival; Kinetic solubility (Kinetic solubility; 24 h): stability issues; chromatographic logD (CHI logD): 4.3; half-life at 0.5 µM (Microsomal clearance): 6.66 min; Microsomal Clearance (Microsomal clearance): 0.21 mL/min/mg Protein; IC50 at 72 h [5]: 2.3 to 3 µM; IC50 (HepG2 hepatoma cells): 2.99 ± 0.11 µM; melting point: 200 to 201 °C
–,0.9 ± 0.2,1.1 ± 0.2,O=C(Nc1ccc(C(F)(F)F)cc1)c1cc(Cl)ccc1O [Compound 2e],–,2,1,1,2,2,1,1,1,1,453.3,3.33,121.6,"MIC (M. mycetomatis strains; strain MM55, read-out: MIC, MM55): 1.0 µM"
1.38 ± 0.45,1.3 ± 0.7,2 ± 0.1,"O=C(Nc1cccc(S(F)(F)(F)(F)F)c1)c1cc(Cl)ccc1O [Compound 2c, 5-Chloro-2-hydroxy-N-(3-pentafluorosulfanylphenyl)benzamide]",1.38 ± 0.4,2,1,1,2,2,0.5,1,1,1,346.7,−3.33,15,melting point: 197 °C

SMILES,"IC50 (SK-GT-4 EAC cells; SKGT4, 72 h) [µM]","IC50 [2, 6] [µM]","IC90 [2, 6] [µM]","IC50 (FLO-1 EAC cells; FLO-1, 72 h) [µM]",MIC (M. mycetomatis strains; [7]) [µM],MIC (M. mycetomatis strains; [8]) [µM],MIC (M. mycetomatis strains; [9]) [µM],MIC (M. mycetomatis strains; [10]) [µM],MIC (M. mycetomatis strains; [11]) [µM],MIC (M. mycetomatis strains; [12]) [µM],MIC (M. mycetomatis strains; [13]) [µM],MIC (M. mycetomatis strains; [14]) [µM],MIC50 (M. mycetomatis strains; Madurella mycetomatis) [µM],d10 AUC [4],d10 Survival Corrected with Control ([4]; infected larvae) [%],d10 ΔAUC [4],other results
"O=C(Nc1ccc(S(F)(F)(F)(F)F)cc1)c1cc(Cl)ccc1O [Compound 2a, 5-Chloro-2-hydroxy-N-(4-pentafluorosulfanylphenyl)benzamide]",1.8 ± 0.17,–,1.9 ± 0.6,1.62 ± 0.55,0.5,0.5,0.5,0.5,0.5,0.5,0.3,0.5,0.5,445,13.33,113.3,IC50 [2]: 0.3 ± 0.1 µM; Toxicity to non-infected G. mellonella larvae [3]: not toxic; d10 Survival ([4]; infected larvae): 26.7% and 26.67%; solubility kinetic at 24 h (Kinetic solubility; kinetic from dmso stock): 0.67 µM; chromatographic logD (CHI logD): 3.9; half-life at 0.5 µM (Microsomal clearance): > 30 min; Microsomal Clearance (Microsomal clearance): 0.02 mL/min/mg Protein; IC50 at 72 h [5]: 2.3 to 3 µM; IC50 (HepG2 hepatoma cells): 2.26 ± 0.31 µM
